The values below come from ChEMBL document CHEMBL4028844, “Targeting the Receptor for Advanced Glycation Endproducts (RAGE): A Medicinal Chemistry Perspective” (J Med Chem, 2017).

Bounds are passed on as bounds.

In data set [1] the target is T1, Advanced glycosylation end product-specific receptor (Homo sapiens, UniProt Q15109). As to the kind of experiment: Inhibition of […] binding to RAGE (unknown origin) by ELISA.
Data set [2] addresses T1, Advanced glycosylation end product-specific receptor. As to the kind of experiment: Inhibition of amyloid beta binding to RAGE (unknown origin) by ELISA.
Data set [3] has the same target. As to the kind of experiment: Inhibition of CML binding to RAGE (unknown origin) by ELISA.
Data set [4] has the same target. As to the kind of experiment: Inhibition of amyloid beta binding to human RAGE […] expressed in HEK293 cells after 10 mins by MST assay. In kind it is cell-based.
A short description of data set [5]: Cytotoxicity against mouse HT22 cells assessed as cell survival at 10 uM after 18 hrs by MTT assay relative to control. To be noted: read-out: Survival. The format is cell-based, HT-22.
Data set [6] has as its target T1, Advanced glycosylation end product-specific receptor. As to the kind of experiment: Binding affinity to human RAGE cytoplasmic domain by tryptophan fluorescence assay.
The target is the same in data set [7]. As to the kind of experiment: Inhibition of amyloid beta binding to biotin-labeled human RAGE domain V at 20 uM after 60 mins by ELISA relative to cotrol.
Data set [8] shares this target. As to the kind of experiment: Displacement of [I125]amyloid beta (1 to 40) from human RAGE domain V expressed in CHO cells. In kind it is cell-based.
For data set [9] the target is unchanged. As to the kind of experiment: Inhibition of HMGB1 binding to human RAGE domain V expressed in CHO cells. In kind it is cell-based.
For data set [10] the target is unchanged. As to the kind of experiment: Inhibition of […] binding to human RAGE domain V expressed in CHO cells. The format is cell-based.
For data set [11] the target is unchanged. As to the kind of experiment: Binding affinity to human His-tagged RAGE domain VC1 expressed in Escherichia coli by fluorescence titration method.
The target of data set [12] is Advanced glycosylation end product-specific receptor (Rattus norvegicus, UniProt Q63495). As to the kind of experiment: Binding affinity to Wistar rat His-tagged RAGE domain VC1 expressed in Escherichia coli by fluorescence titration method.
Chain of Advanced glycosylation end product-specific receptor (Rattus norvegicus, UniProt Q63495) (Q63495 whole entry, the tested form may be a part): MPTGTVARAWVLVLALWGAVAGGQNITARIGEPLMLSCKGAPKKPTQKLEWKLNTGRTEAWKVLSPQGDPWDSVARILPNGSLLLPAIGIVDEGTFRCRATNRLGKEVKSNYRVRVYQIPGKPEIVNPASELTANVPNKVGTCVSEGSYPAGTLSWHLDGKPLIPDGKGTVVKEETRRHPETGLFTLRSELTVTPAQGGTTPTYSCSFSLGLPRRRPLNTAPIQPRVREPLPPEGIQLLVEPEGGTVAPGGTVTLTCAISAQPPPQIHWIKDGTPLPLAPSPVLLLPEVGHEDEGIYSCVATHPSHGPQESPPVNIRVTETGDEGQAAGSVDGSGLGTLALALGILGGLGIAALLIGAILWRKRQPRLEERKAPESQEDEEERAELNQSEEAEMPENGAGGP
For data set [13], the target named is T1, Advanced glycosylation end product-specific receptor. As to the kind of experiment: Binding affinity to human C-terminal His-tagged RAGE domain V (24 to 125 residues) expressed in Escherichia coli BL21(DE3) by tryptophan fluorescence assay.

T1 sequence (Q15109 whole entry): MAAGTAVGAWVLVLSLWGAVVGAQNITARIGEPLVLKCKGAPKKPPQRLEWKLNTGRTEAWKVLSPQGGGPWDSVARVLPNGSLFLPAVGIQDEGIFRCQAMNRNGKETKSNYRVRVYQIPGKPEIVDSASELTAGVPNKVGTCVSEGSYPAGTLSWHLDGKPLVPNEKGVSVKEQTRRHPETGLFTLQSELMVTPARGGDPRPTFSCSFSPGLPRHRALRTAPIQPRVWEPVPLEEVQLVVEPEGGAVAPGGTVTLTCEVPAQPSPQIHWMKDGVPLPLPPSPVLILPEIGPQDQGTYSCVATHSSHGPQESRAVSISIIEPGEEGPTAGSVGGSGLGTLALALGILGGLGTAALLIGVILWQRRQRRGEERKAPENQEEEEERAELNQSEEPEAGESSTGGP

Turning to `CCCCn1c([C@@H](Cc2ccc(OCCc3ccc(Cl)cc3)cc2)NC(=O)OC(C)(C)C)nc2cc(OCCCN(CC)CC)ccc21`, the IC50 was below 0.5 µM in [1], below 0.5 µM in [2] and below 4 µM in [3].

`O=C1CCC[C@@H]2[C@H]3CCCN4CCC[C@@H](CN12)[C@@H]34` [MATRINE]: in data set [4], the equilibrium dissociation constant (Kd) is 24000 µM.

Turning to `CCN(CC)CCOc1cccc(Nc2nc(-c3ccc(Cl)cc3)cc(-c3ccc(Cl)cc3)n2)c1`, in [5], the viability at 18 h, 10 µM is 37.3%.

In turn, `COc1cc(SC)ccc1C(=O)Nc1cccc(C)n1` registered a dissociation constant Kd in data set [6] of 0.006 µM.

As to `CCCCOc1cc(OCCCN(CC)CC)ccc1NC(=O)c1cc(-c2ccc(Oc3ccc(F)cc3)cc2)nn1C`, the viability at 18 h, 10 µM in data set [5] came to 10.3%.

Take `CCCCOc1cc(OCCCN(CC)CC)ccc1NC(=O)C(CC1CCN(Cc2ccccc2)CC1)NC(=O)OCC1c2ccccc2-c2ccccc21` (stereo unspecified): the IC50 in data set [1], in data set [2] and in data set [3] was below 0.5 µM each time.

As to `Cc1nc2ccccc2n1CC(O)Cn1c2ccccc2c2ccccc21` (stereo unspecified), the affinity in [6], expressed as Kd, was 0.001 µM.

For the compound `CCN(CC)CCOc1ccc(OC)cc1NC(=O)c1nc(-c2ccc(F)cc2)cc(-c2ccc(F)cc2)n1`, the inhibition in data set [7] was above 4%. In addition, the viability at 18 h, 10 µM in data set [5] is 100%.

On to `O=C(c1ccc(Cl)cc1)N(Cc1ccccc1)C1CCCCC1`, for which the Ki in data set [8] is 0.025 µM; in data set [9], 0.148 µM; in [10], 0.23 µM.

As to `COC(=O)c1cc(O)c(O)cc1NC(=O)C1Oc2ccccc2OC1C` (stereo unspecified), the Kd in [6] came to 0.002 µM.

For the compound `O=C(O)c1cccnc1C(=O)O` [QUINOLINIC ACID], the Kd in data set [11] and in data set [12] was 0.043 µM in each case.

`CC1NC(NCCC[C@H](N)C(=O)O)=NC1=O` (stereo partly specified) registered a Kd in data set [13] of 0.03 to 0.04 µM.

The compound `Cc1c(Cl)cccc1NC(=O)CNC(=O)c1ccccc1F` came in with a Kd in [6] of 0.032 µM.
